Measurements: patent US4175081A, “5-Substituted thiadiazole ureas” (priority 1977, dated 1979)

Assays:
Sinapis = test: Field test, post-emergence application; type: in vivo; set-up: unit not given here; conditions: 2 lbs/acre, reading 0 = no effect, 10 = completely killed, 8 and 14 days
Protocol: Tests have also been made for the compound of Example 1 with Sinapis, oats and wheat. This test was conducted according to the following procedure.
Forty rows, 70 feet long, were planted to weeds and crops. Two rows were planted on each bed. Beds were 40 inches apart from center to center. The two rows were about 10 inches apart on each bed. Beds were rolled prior to planting to provide a uniform smooth surface. Soil temperature at a depth of 11/2 inches was 66° F. at time of planting. Post-emergence applications were made by spraying bands across rows 10 feet wide using a self-propelled plot sprayer with a 10 foot boom equipped with Teejet 8001 flat spray nozzle tips and operated at 40 psi. A total of 84 fluid ounces of spray material was applied to three replicates. Each replicate plot was 10 feet wide by 66.67 feet long.
Eight days after the application, readings were made on the effect of the chemicals on each crop and weed in the post-emergence treatment. A reading of 0 was recorded if no effect was observed; 10 recorded if the plants were completely killed, and readings of 1 to 9 for intermediate kills. A second reading of the post-emergence treatments was made 14 days after the application.

Corn (CN) [1] = test: Pre-emergence herbicide test; type: in vivo; conditions: Zea mays, 336 h, two weeks after treatment
In short: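 Four corn seeds per pot, sown at seed-diameter depth one day before spraying, got soil surface treatment at 8 lbs/acre (4 lbs/acre formulations also prepared) in 38 gallons/acre. Pots were greenhouse-held with sub-irrigation only. Injury or control was scored visually two weeks after treatment.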

Johnson grass (JG) [2] = test: Pre-emergence herbicide test; type: in vivo, Sorgum helepense; conditions: Sorghum halepense, 336 h, two weeks after treatment
In short: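 Pots seeded one day before spraying; compound applied pre-emergence at 8 lbs/acre (or 4 lbs/acre) in 38 gallons/acre spray volume. Sub-irrigated in greenhouse; injury/control rated visually two weeks after treatment.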

Turnip (TP) [3] = test: Pre-emergence herbicide test; type: in vivo, Brassica sp.; conditions: Brassica rapa, pre-emergence, 336 h, two weeks after treatment
In short: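 Turnip (Brassica sp.) seeds were surface sown in 3' plastic pots of potting soil, covered with a thin layer of screened soil, and sub-irrigated in greenhouse trays. Pots were seeded one day ahead of treatment, sprayed pre-emergence under a hood with a fixed nozzle and moving belt, then kept in the greenhouse.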

Turnip (TP) [4] = test: Post-emergence herbicide test; type: in vivo, Brassica sp.; conditions: Brassica rapa, post-emergence, 336 h, two weeks after treatment
In short: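 A greenhouse post-emergence herbicide test on turnip. Seeds were sown on the surface of potting soil in 3' plastic pots, lightly covered with screened soil and watered from below. Planting was timed so seedlings had 1 or 2 true leaves above the cotyledons at spraying, done in a hood with a fixed nozzle. Control or injury was scored by eye after two weeks.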

Cotton (CT) = test: Pre-emergence herbicide test; type: in vivo, Gossypium hirsutum var. DPL smooth leaf; conditions: Gossypium hirsutum, 336 h, two weeks after treatment
In short: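 Crop and weed species seeded one day before treatment, then sprayed pre-emergence at 8 lbs actual compound per acre (also 4 lbs/acre formulations) in 38 gallons per acre. Pots kept in greenhouse with sub-irrigation only; injury or control visually rated two weeks after treatment.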

[5] = tested on: Yellow foxtail grass (YF); test: Pre-emergence herbicide test; type: in vivo, Setaria glauca; conditions: Setaria, 336 h, two weeks after treatment
In short: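 Seeds surface-sown in potting soil one day before spraying; compounds applied pre-emergence at 8 or 4 lbs/acre in 38 gallons/acre spray. Pots held in greenhouse with sub-irrigation only. Injury or control rated visually two weeks after treatment.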

Barnyard grass (BG) = test: Post-emergence herbicide test; type: in vivo; conditions: Echinochloa crus-galli, 336 h, two weeks after treatment
In short: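 Greenhouse pot-grown barnyard grass seedlings sprayed post-emergence at 8 lbs active compound per acre (some at 4 lbs/acre) in 38 gallons per acre, then sub-irrigated. Injury or control rated visually two weeks after treatment.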

Johnson grass (JG) [6] = test: Post-emergence herbicide test; type: in vivo, Sorgum helepense; conditions: Sorghum halepense, 336 h, two weeks after treatment
In short: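 Greenhouse pot-grown seedlings sprayed post-emergence at 8 lbs compound per acre (some at 4 lbs/acre) in 38 gallons per acre spray volume. Sub-irrigated thereafter. Injury/control rated visually two weeks after treatment.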

Amaranth pigweed (PW) [7] = test: Pre-emergence herbicide test; type: in vivo, Amaranthus retroflexus; conditions: 336 h, two weeks after treatment
In short: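 Pigweed was surface-seeded in potted soil one day before spraying at 8 lbs compound per acre, or 4 lbs/acre, in 38 gallons per acre. Pots were kept in the greenhouse with sub-irrigation only; injury or control was rated visually two weeks after treatment.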

Corn (CN) [8] = test: Post-emergence herbicide test; type: in vivo; conditions: Zea mays, 336 h, two weeks after treatment
In short: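 Greenhouse seedlings grown in potting soil and sprayed post-emergence at 8 lbs compound/acre (formulations also made for 4 lbs/acre) in 38 gallons/acre spray volume. Watering by sub-irrigation only. Injury or control rated visually two weeks after treatment.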

Bean (BN) = test: Pre-emergence herbicide test; type: in vivo, Phaseolus vulgaris var. Black Valentine; conditions: Phaseolus vulgaris, 336 h, two weeks after treatment
In short: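 Black Valentine bean was seeded in potting soil one day before spraying. Compound was applied pre-emergence at 8 lbs/acre (also 4 lbs/acre) in 38 gallons per acre. Plants were sub-irrigated and injury or control was rated visually after two weeks.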

[9] = tested on: Yellow foxtail grass (YF); test: Post-emergence herbicide test; type: in vivo, Setaria glauca; conditions: Setaria, 336 h, two weeks after treatment
In short: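 Potted seedlings grown in greenhouse, planting staggered to reach the target stage together, then sprayed post-emergence at 8 lbs actual compound/acre in 38 gallons/acre (4 lbs/acre formulations also prepared). Sub-irrigated afterwards. Injury or control rated visually two weeks after treatment.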

[10] = tested on: variety of crops and weed species; test: Pre- and post-emergence herbicide tests, overall assessment of Tables III-VI; type: in vivo; conditions: data of Tables III-VI
In short: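 Crops and weeds grown in potting soil were sprayed at 8 lbs. compound per acre in 38 gallons per acre, pre-emergence pots seeded one day before treatment. Injury or control was visually rated two weeks after treatment.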

Crabgrass (CG) [11] = test: Post-emergence herbicide test; type: in vivo, Digitaria sanquinalis; conditions: Digitaria sanguinalis, post-emergence, 336 h, two weeks after treatment
In short: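 Crabgrass (Digitaria sanquinalis) was surface seeded individually in 3' plastic pots of potting soil, covered with screened soil, and watered by sub-irrigation in greenhouse trays. Planting was staggered so seedlings reached the target stage together. Post-emergence sprays were applied in a hood with a removable belt and fixed nozzle, and control was visually rated two weeks after treatment.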

Amaranth pigweed (PW) [12] = test: Post-emergence herbicide test; type: in vivo, Amaranthus retroflexus; conditions: 336 h, two weeks after treatment
In short: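 Pot-grown pigweed was sprayed post-emergence at the 1–2 true-leaf stage with compound at rates equivalent to 8 lbs per acre (formulations also prepared for 4 lbs/acre) in 38 gallons per acre, using a hood with fixed nozzle. Plants were sub-irrigated in the greenhouse, and injury or control was rated visually two weeks after treatment.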

Crabgrass (CG) [13] = test: Pre-emergence herbicide test; type: in vivo, Digitaria sanquinalis; conditions: Digitaria sanguinalis, pre-emergence, 336 h, two weeks after treatment
In short: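 Crabgrass (Digitaria sanquinalis) was surface seeded in 3' plastic pots of potting soil, covered with screened soil, and watered by sub-irrigation in greenhouse trays. Pots were seeded one day before spraying in a hood with a moving belt and fixed nozzle. Plants stayed in the greenhouse on sub-irrigation, and pre-emergence control was rated visually two weeks after treatment.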

With `CNC(=O)Nc1nnc(C(F)(F)F)s1` [Example 1, 1-Methyl-3-[5-Trifluoromethyl-2-(1,3,4-Thiadiazolyl)] Urea] the “Post-emergence activity, % control, Sinapis” value (Sinapis) was 10, the pest or weed control at 4483.4 g/ha (Corn (CN) [1]; 4 lb/acre) was 30% and the pest or weed control at 8966.8 g/ha (Corn (CN) [1]; 8 lb/acre) was 90%. The pest or weed control at 4483.4 g/ha (Johnson grass (JG) [2]; 4 lb/acre) was 80%, the pest or weed control at 8966.8 g/ha (Johnson grass (JG) [2]; 8 lb/acre) was 70% and the pest or weed control at 4483.4 g/ha (Turnip (TP) [3]; 4 lb/acre) was 90%. It also gave a pest or weed control at 8966.8 g/ha (Turnip (TP) [3]; 8 lb/acre) of 100%, a pest or weed control at 2241.7 g/ha (Turnip (TP) [4]; 2 lb/acre) of 80% and a pest or weed control at 4483.4 g/ha (Turnip (TP) [4]; 4 lb/acre) of 100%. For the same compound, the pest or weed control at 8966.8 g/ha (Turnip (TP) [4]; 8 lb/acre) was 100%, the pest or weed control at 4483.4 g/ha (Cotton (CT); 4 lb/acre) was 80% and the pest or weed control at 8966.8 g/ha (Cotton (CT); 8 lb/acre) was 100%. For the same compound, the pest or weed control at 4483.4 g/ha ([5]; 4 lb/acre) was 80%, the pest or weed control at 8966.8 g/ha ([5]; 8 lb/acre) was 90% and the pest or weed control at 2241.7 g/ha (Barnyard grass (BG); 2 lb/acre) was 70%. For the same compound, the pest or weed control at 4483.4 g/ha (Barnyard grass (BG); 4 lb/acre) was 100%, the pest or weed control at 8966.8 g/ha (Barnyard grass (BG); 8 lb/acre) was 100% and the pest or weed control (Johnson grass (JG) [6]; 2 lb/acre) was 90%. It also gave a pest or weed control at 4483.4 g/ha (Johnson grass (JG) [6]; 4 lb/acre) of 90%, a pest or weed control at 8966.8 g/ha (Johnson grass (JG) [6]; 8 lb/acre) of 100% and a pest or weed control at 4483.4 g/ha (Amaranth pigweed (PW) [7]; 4 lb/acre) of 90%. The pest or weed control at 8966.8 g/ha (Amaranth pigweed (PW) [7]; 8 lb/acre) was 90%, the pest or weed control (Corn (CN) [8]; 2 lb/acre) was 70% and the pest or weed control at 4483.4 g/ha (Corn (CN) [8]; 4 lb/acre) was 100%. For the same compound, the pest or weed control at 8966.8 g/ha (Corn (CN) [8]; 8 lb/acre) was 100%, the pest or weed control at 4483.4 g/ha (Bean (BN); 4 lb/acre) was 90% and the pest or weed control at 8966.8 g/ha (Bean (BN); 8 lb/acre) was 90%. It also gave a pest or weed control ([9]; 2 lb/acre) of 50%, a pest or weed control at 4483.4 g/ha ([9]; 4 lb/acre) of 90% and a pest or weed control at 8966.8 g/ha ([9]; 8 lb/acre) of 100%. For the same compound, the “herbicidal effectiveness / selectivity, in words” value [10] was “extremely effective when applied to a variety of crops and weed species”, the pest or weed control (Crabgrass (CG) [11]; 2 lb/acre) was 60% and the pest or weed control at 4483.4 g/ha (Crabgrass (CG) [11]; 4 lb/acre) was 90%. It also gave a pest or weed control at 8966.8 g/ha (Crabgrass (CG) [11]; 8 lb/acre) of 100%, a pest or weed control at 2241.7 g/ha (Amaranth pigweed (PW) [12]; 2 lb/acre) of 100% and a pest or weed control at 4483.4 g/ha (Amaranth pigweed (PW) [12]; 4 lb/acre) of 100%. It also gave a pest or weed control at 8966.8 g/ha (Amaranth pigweed (PW) [12]; 8 lb/acre) of 100%, a pest or weed control at 4483.4 g/ha (Crabgrass (CG) [13]; 4 lb/acre) of 90% and a pest or weed control at 8966.8 g/ha (Crabgrass (CG) [13]; 8 lb/acre) of 100%.
